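Interpolation was linear, between the two tested concentrations surrounding the appropriate level; five concentrations were tested over 48 hours in 96-well plates. At the GI50, growth is halved. TGI: total growth inhibition.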
What was measured:
Experiment in all cases: NCI tumour cell line growth inhibition, 48 h
A549 NSCLC = tested on: A549 NSCLC
CCRF-CEM leukemia = tested on: CCRF-CEM leukemia
HL-60(TB) leukemia = tested on: HL-60(TB) leukemia
HS 578T breast = tested on: HS 578T breast
HT29 colon = tested on: HT29 colon
K-562 leukemia = tested on: K-562 leukemia
NCI-H522 lung = tested on: NCI-H522 lung
RPMI-8226 leukemia = tested on: RPMI-8226 leukemia
KM12 colon = tested on: KM12 colon
SN12C renal = tested on: SN12C renal
NCI-H226 lung = tested on: NCI-H226 lung

SMILES | TGI (A549 NSCLC) [µM] | TGI (CCRF-CEM leukemia) [µM] | TGI (HL-60(TB) leukemia) [µM] | TGI (HS 578T breast) [µM] | TGI (HT29 colon) [µM] | TGI (K-562 leukemia) [µM] | TGI (NCI-H522 lung) [µM] | TGI (RPMI-8226 leukemia) [µM] | TGI (KM12 colon) [µM] | TGI (SN12C renal) [µM] | TGI (NCI-H226 lung) [µM] | GI50 (HS 578T breast) [µM] | GI50 (HT29 colon) [µM] | GI50 (RPMI-8226 leukemia) [µM]
CCOC(=O)C(Cc1ccc2c(c1)CCC2)(Cc1ccc2c(c1)CCC2)C(=O)OCC | > 100 | > 100 | > 100 | > 100 | > 100 | > 100 | > 100 | > 100 | – | – | – | – | – | –
Cc1cccc2c1Oc1cc(Cl)ccc1C2NC(=O)CCN1CCCCC1 (stereo not given) | 37.5 | 32.4 | 38.3 | – | 27.1 | 32 | 31.3 | 63 | 30.8 | 33 | – | – | – | –
COc1ccc(C2CCc3nc4nc(N)nc(N)c4cc3C2)cc1 (stereo not given) | > 100 | – | > 100 | > 100 | 94.3 | > 100 | > 100 | > 100 | > 100 | 59.5 | > 100 | – | – | –
NS(=O)(=O)c1nnc(NC(=O)CCC(=O)O)s1 | > 100 | – | > 100 | > 100 | > 100 | > 100 | > 100 | > 100 | > 100 | > 100 | > 100 | – | – | –
Nn1c(CNc2ccc(-c3nnc(Nc4ccc(Cl)cc4)n3N)cc2)nnc1Nc1ccc(Cl)cc1 | > 100 | – | – | – | > 100 | > 100 | > 100 | > 100 | > 100 | > 100 | > 100 | – | – | –
CC1=CC(c2ccccc2)OP1(=O)c1ccccc1 (stereo not given) | > 100 | – | > 100 | > 100 | > 100 | > 100 | > 100 | – | > 100 | > 100 | > 100 | – | – | –
COCCc1c(C)c(C#N)c2n(C)c3ccccc3n2c1=O | > 10 | – | > 10 | > 10 | > 10 | > 10 | > 10 | > 10 | > 10 | > 10 | > 10 | – | – | –
CSc1ccc2c(c1)c(CCN)c(C)n2Cc1ccc(Cl)c(Cl)c1 | – | – | – | 4.8 | 2.92 | – | – | 4.66 | – | – | – | 2.05 | 1.49 | 2.14
c1ccc(Cc2cccc3cc(-c4ccc(-c5ccccc5)cc4)[nH]c23)cc1 | > 100 | > 100 | > 100 | 84 | > 100 | – | > 100 | > 100 | > 100 | > 100 | > 100 | – | – | –
NCCCNCCSSCc1ccccc1CSSCCNCCCN | > 100 | 29.8 | 29.8 | – | 27.4 | > 100 | 26.7 | > 100 | > 100 | > 100 | – | – | – | –
N#CC12COC3(CCCCC3C1(C#N)C#N)OC2=N (stereo not given) | 66.8 | 22.3 | – | 44.7 | 26.1 | > 100 | – | – | – | 24.8 | 71.2 | – | – | –
O=C(NC(=O)c1cn(CCN2CCNCC2)c(=O)[nH]c1=O)OCc1ccccc1 | > 100 | > 100 | > 100 | – | > 100 | > 100 | > 100 | > 100 | > 100 | > 100 | > 100 | – | – | –
CCCS(=O)(=O)O | > 100 | > 100 | > 100 | > 100 | > 100 | > 100 | > 100 | > 100 | > 100 | – | > 100 | – | – | –
CN(Cc1cnc2nc(N)nc(N)c2n1)c1ccc(C(=O)NC(CCS(=O)(=O)O)C(=O)O)cc1 (stereo not given) | > 100 | 0.739 | 1.62 | > 100 | > 100 | – | > 100 | > 100 | > 100 | > 100 | > 100 | – | – | –
COc1cc(Cn2c3c(c4c(CN(C)C)c(O)ccc42)C(=O)c2ccccc2C3=O)cc(OC)c1 | 35.1 | 52.4 | > 100 | 43.9 | > 100 | 36.8 | – | 41.5 | > 100 | 55.1 | > 100 | – | – | –
CC(C)(C)OC(=O)N1C(C2=COc3ccccc3O2)=COc2ccccc21 | > 100 | – | 45.5 | > 100 | > 100 | 57 | 40.8 | 43.5 | > 100 | > 100 | 88.8 | – | – | –
C=CCN1CCC(OC(=O)C(O)(/C=C\CC)C2CCCC2)CC1 (stereo not given) | > 100 | > 100 | > 100 | > 100 | > 100 | > 100 | > 100 | > 100 | – | > 100 | > 100 | – | – | –
COC(=O)C12CCC(C(=O)OC)(Cc3c(c4ccccc4n3S(=O)(=O)c3ccccc3)C1)C2=O (stereo not given) | > 100 | > 100 | – | > 84.7 | > 81 | > 100 | 97.1 | > 100 | > 100 | > 100 | > 100 | – | – | –
COc1ccc2c(c1)/C(=C(\C(Cl)=C(\Cl)N1CCCCC1)[N+](=O)[O-])N2 | > 100 | > 100 | > 100 | > 100 | > 100 | > 100 | > 100 | – | > 100 | > 100 | > 100 | – | – | –
Cc1ccc2nc3c(C(=O)NCCN(C)C)cccc3cc2c1 | 4 | 5.28 | 3.72 | – | 4.79 | 7.83 | – | 7.12 | 12.6 | 7.06 | 3.6 | – | – | –
COc1ccc2c(c1)/C(=C(\C(Cl)=C(Cl)Cl)[N+](=O)[O-])N2 | > 100 | > 100 | > 100 | > 100 | > 100 | > 100 | 87 | – | > 100 | > 100 | 85.7 | – | – | –
CCN(CC)CCNc1ccc([N+](=O)[O-])c2nc3ccccc3c(N)c12 | 2.39 | 2.08 | 2.11 | 1.83 | 2.28 | 1.75 | – | 6.18 | 1.41 | > 10 | 5.62 | – | – | –
Oc1c(C(O)(c2ccccc2)c2ccc3ccccc3c2O)ccc2ccccc12 | 30.4 | – | 13.9 | 27.8 | 33 | 15.7 | 16.5 | 5.32 | 25.4 | 23.1 | 36.5 | – | – | –
